Source: US20220133783A1 (priority 2020, published 2022)
Where “and” joins values, the source holds several entries; their conditions need not be identical. Equal values may be shown once.

Assays:
virus = conditions: cited from earlier work
[1] = system: VSV pseudo typed with SARS-CoV2 Spike protein (rVSG-dG 2019-CoV-2-18AA S); format: cell-based
Human coronavirus 229E = format: cell-based; conditions: 10 min pre-treatment with 10 μg/mL

| Substance | reported effect by itself on virus inhibition (antiviral concentration) (virus) | FIC of the single agent within the combination [1] | human coronavirus 229E binding and replication in the MRC-5 cell line (Human coronavirus 229E; SEM) | viral entry and cytopathic effects caused by the virus (Human coronavirus 229E; after 48 hours of incubation, compared to controls) | cytotoxicity (MRC-5 cells) |
| --- | --- | --- | --- | --- | --- |
| copper | 300 µg/mL | 0.10 and 0.07 |  |  |  |
| ethyl-N-alpha-lauroyl-L-arginate HCl [ELAH] | 300 µg/mL | 0.10 | inhibited | reduces | non-cytotoxic |
